Results published in the NIST ThermoML archive (doi:10.1021/je060271a).
Where “and” joins values, the source holds several entries; their conditions need not be identical. Equal entries are not always repeated. Numbers after ± are expanded uncertainties.

Conditions: 323.16 K, Liquid, Vibrating tube method

CCCCCC(=O)OCC(COC(=O)CCCCC)(COC(=O)CCCCC)COC(=O)CCCCC [pentaerythritol tetrahexanoate]
Conditions | mass density
16338 kPa | 983.8 ± 1.2 kg/m3 and 983.7 ± 1.2 kg/m3
16340 kPa | 983.7 ± 1.2 kg/m3
16341 kPa | 983.7 ± 1.2 kg/m3 and 983.8 ± 1.2 kg/m3
16342 kPa | 983.8 ± 1.2 kg/m3 and 983.7 ± 1.2 kg/m3
16347 kPa | 983.6 ± 1.2 kg/m3
16370 kPa | 983.7 ± 1.2 kg/m3
16396 kPa | 983.7 ± 1.2 kg/m3
16427 kPa | 983.7 ± 1.2 kg/m3
16452 kPa | 983.7 ± 1.2 kg/m3
16482 kPa | 983.8 ± 1.2 kg/m3
16510 kPa | 983.8 ± 1.2 kg/m3
16538 kPa | 983.8 ± 1.2 kg/m3
16562 kPa | 983.9 ± 1.2 kg/m3
16590 kPa | 983.8 ± 1.2 kg/m3
16620 kPa | 983.9 ± 1.2 kg/m3
16644 kPa | 983.9 ± 1.2 kg/m3
16673 kPa | 984 ± 1.2 kg/m3
16702 kPa | 984.1 ± 1.2 kg/m3
16730 kPa | 984 ± 1.2 kg/m3
16755 kPa | 984 ± 1.2 kg/m3
16784 kPa | 984 ± 1.2 kg/m3
16815 kPa | 984 ± 1.2 kg/m3
16841 kPa | 984 ± 1.2 kg/m3
16870 kPa | 984.1 ± 1.2 kg/m3
16900 kPa | 984.1 ± 1.2 kg/m3
16925 kPa | 984.2 ± 1.2 kg/m3
16955 kPa | 984.2 ± 1.2 kg/m3
16986 kPa | 984.2 ± 1.2 kg/m3
17011 kPa | 984.1 ± 1.2 kg/m3
17041 kPa | 984.2 ± 1.2 kg/m3
17072 kPa | 984.1 ± 1.2 kg/m3
17102 kPa | 984.2 ± 1.2 kg/m3
17128 kPa | 984.2 ± 1.2 kg/m3
17159 kPa | 984.3 ± 1.2 kg/m3
17192 kPa | 984.3 ± 1.2 kg/m3
17216 kPa | 984.4 ± 1.2 kg/m3
17248 kPa | 984.3 ± 1.2 kg/m3
17278 kPa | 984.4 ± 1.2 kg/m3
17303 kPa | 984.4 ± 1.2 kg/m3
17334 kPa | 984.3 ± 1.2 kg/m3
17365 kPa | 984.4 ± 1.2 kg/m3
17396 kPa | 984.4 ± 1.2 kg/m3
17427 kPa | 984.3 ± 1.2 kg/m3
17452 kPa | 984.4 ± 1.2 kg/m3
17481 kPa | 984.4 ± 1.2 kg/m3
17510 kPa | 984.4 ± 1.2 kg/m3
17540 kPa | 984.5 ± 1.2 kg/m3
17565 kPa | 984.5 ± 1.2 kg/m3
17594 kPa | 984.6 ± 1.2 kg/m3
17623 kPa | 984.6 ± 1.2 kg/m3
17652 kPa | 984.7 ± 1.2 kg/m3
17682 kPa | 984.5 ± 1.2 kg/m3
17706 kPa | 984.6 ± 1.2 kg/m3
17736 kPa | 984.6 ± 1.2 kg/m3
17766 kPa | 984.7 ± 1.2 kg/m3
17796 kPa | 984.7 ± 1.2 kg/m3
17826 kPa | 984.6 ± 1.2 kg/m3
17852 kPa | 984.7 ± 1.2 kg/m3
17882 kPa | 984.9 ± 1.2 kg/m3
17913 kPa | 984.8 ± 1.2 kg/m3
17940 kPa | 984.8 ± 1.2 kg/m3
17970 kPa | 984.8 ± 1.2 kg/m3
18001 kPa | 984.8 ± 1.2 kg/m3
18032 kPa | 984.8 ± 1.2 kg/m3
18058 kPa | 984.9 ± 1.2 kg/m3
18088 kPa | 984.8 ± 1.2 kg/m3
18119 kPa | 984.8 ± 1.2 kg/m3
18145 kPa | 984.9 ± 1.2 kg/m3
18174 kPa | 984.9 ± 1.2 kg/m3
18203 kPa | 985 ± 1.2 kg/m3
18231 kPa | 984.9 ± 1.2 kg/m3
18260 kPa | 984.9 ± 1.2 kg/m3
18284 kPa | 985 ± 1.2 kg/m3
18312 kPa | 984.8 ± 1.2 kg/m3
18341 kPa | 985 ± 1.2 kg/m3
18370 kPa | 985 ± 1.2 kg/m3
18394 kPa | 985 ± 1.2 kg/m3
18423 kPa | 985 ± 1.2 kg/m3
18452 kPa | 985.1 ± 1.2 kg/m3
18481 kPa | 985.1 ± 1.2 kg/m3
18510 kPa | 985.1 ± 1.2 kg/m3
18540 kPa | 985 ± 1.2 kg/m3
18565 kPa | 985.1 ± 1.2 kg/m3
18594 kPa | 985.2 ± 1.2 kg/m3
18624 kPa | 985.2 ± 1.2 kg/m3
18649 kPa | 985.2 ± 1.2 kg/m3
18679 kPa | 985.1 ± 1.2 kg/m3
18709 kPa | 985.2 ± 1.2 kg/m3
18737 kPa | 985.2 ± 1.2 kg/m3
18761 kPa | 985.2 ± 1.2 kg/m3
18789 kPa | 985.3 ± 1.2 kg/m3
18818 kPa | 985.2 ± 1.2 kg/m3
18846 kPa | 985.2 ± 1.2 kg/m3
18876 kPa | 985.4 ± 1.2 kg/m3
18900 kPa | 985.4 ± 1.2 kg/m3
18928 kPa | 985.4 ± 1.2 kg/m3
18958 kPa | 985.4 ± 1.2 kg/m3
18987 kPa | 985.5 ± 1.2 kg/m3
19017 kPa | 985.5 ± 1.2 kg/m3
19042 kPa | 985.4 ± 1.2 kg/m3
19071 kPa | 985.4 ± 1.2 kg/m3
19100 kPa | 985.6 ± 1.2 kg/m3
19129 kPa | 985.6 ± 1.2 kg/m3
19380 kPa | 985.8 ± 1.2 kg/m3
19405 kPa | 985.5 ± 1.2 kg/m3
19434 kPa | 985.7 ± 1.2 kg/m3
19458 kPa | 985.7 ± 1.2 kg/m3
19486 kPa | 985.6 ± 1.2 kg/m3
19516 kPa | 985.7 ± 1.2 kg/m3
19545 kPa | 985.8 ± 1.2 kg/m3
19574 kPa | 985.7 ± 1.2 kg/m3
19599 kPa | 985.9 ± 1.2 kg/m3
19628 kPa | 985.9 ± 1.2 kg/m3
19658 kPa | 985.9 ± 1.2 kg/m3
19688 kPa | 985.9 ± 1.2 kg/m3
19718 kPa | 985.8 ± 1.2 kg/m3
19746 kPa | 986 ± 1.2 kg/m3
19776 kPa | 986 ± 1.2 kg/m3
19801 kPa | 985.9 ± 1.2 kg/m3
19830 kPa | 986 ± 1.2 kg/m3
19861 kPa | 986 ± 1.2 kg/m3
19891 kPa | 986.1 ± 1.2 kg/m3
19922 kPa | 985.9 ± 1.2 kg/m3
19952 kPa | 986 ± 1.2 kg/m3
19978 kPa | 986 ± 1.2 kg/m3
20009 kPa | 986 ± 1.2 kg/m3
20040 kPa | 986.1 ± 1.2 kg/m3
20067 kPa | 986.1 ± 1.2 kg/m3
20098 kPa | 986.2 ± 1.2 kg/m3
20130 kPa | 986.1 ± 1.2 kg/m3
20162 kPa | 986.2 ± 1.2 kg/m3
20188 kPa | 986.1 ± 1.2 kg/m3
20219 kPa | 986.2 ± 1.2 kg/m3
20251 kPa | 986.1 ± 1.2 kg/m3
20282 kPa | 986.3 ± 1.2 kg/m3
20314 kPa | 986.1 ± 1.2 kg/m3
20339 kPa | 986.2 ± 1.2 kg/m3
20396 kPa | 986.2 ± 1.2 kg/m3
20449 kPa | 986.4 ± 1.2 kg/m3
20477 kPa | 986.4 ± 1.2 kg/m3
20506 kPa | 986.4 ± 1.2 kg/m3
20535 kPa | 986.4 ± 1.2 kg/m3
20558 kPa | 986.3 ± 1.2 kg/m3
20587 kPa | 986.4 ± 1.2 kg/m3
